{"source": "patent US20260226037A1", "about": "“MICROTUBULE TARGETING AGENTS” (ARIEL SCIENTIFIC INNOVATIONS LTD., priority 2022, published 2026)", "key": {"MM1.R cells": {"tested_on": "MM1.R cells", "assay": "XTT cytotoxicity, MM1.R", "format": "cell-based", "how_it_was_run": "(§1)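 Readout: XTT reduction, used as the measure of cytotoxic effect on cultured tumor cells.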"}, "RPMI8226 cells": {"tested_on": "RPMI8226 cells", "assay": "Cell cycle distribution by flow cytometry", "format": "cell-based", "conditions": "6 hours; IC50, IC50x2.5 and IC50x5 concentrations", "description": "Cell cycle arrest is a shared consequence of MTAs treatment. The effects of cell cycle distribution were determined in RPMI8226 cells treated for 6 and 18 hours with a range of concentrations of the molecules. The cells were stained with propidium iodide and cell cycle distribution was measured using a cytoFLEX flow cytometer."}, "RPMI 8226 cells": {"tested_on": "RPMI 8226 cells", "assay": "XTT cytotoxicity, RPMI 8226", "format": "cell-based", "conditions": "Homo sapiens, RPMI-8226", "how_it_was_run": "as §1"}, "RPMI-DOX40 cells": {"tested_on": "RPMI-DOX40 cells", "assay": "XTT cytotoxicity, RPMI-DOX40", "format": "cell-based", "how_it_was_run": "as §1"}, "MM1.S cells": {"tested_on": "MM1.S cells", "assay": "XTT cytotoxicity, MM1.S", "format": "cell-based", "conditions": "Homo sapiens", "how_it_was_run": "as §1"}, "MCF7-VP cells": {"tested_on": "MCF7-VP cells", "assay": "XTT cytotoxicity, MCF7-VP", "format": "cell-based", "how_it_was_run": "as §1"}, "[1]": {"tested_on": "colchicine binding site on tubulin protein", "assay": "EBI competition assay, RPMI-8226 cells", "format": "cell-based", "conditions": "RPMI-8226 living cells"}, "RPMI-MR20 cells": {"tested_on": "RPMI-MR20 cells", "assay": "XTT cytotoxicity, RPMI-MR20", "format": "cell-based", "how_it_was_run": "as §1"}, "MCF7 cells": {"tested_on": "MCF7 cells", "assay": "XTT cytotoxicity, MCF7", "format": "cell-based", "conditions": "Homo sapiens; MCF7, breast adenocarcinoma, non-resistant", "how_it_was_run": "as §1"}, "RPMI-LR5 cells": {"tested_on": "RPMI-LR5 cells", "assay": "XTT cytotoxicity, RPMI-LR5", "format": "cell-based", "how_it_was_run": "as §1"}, "N6/ADR cells": {"tested_on": "N6/ADR cells", "assay": "XTT cytotoxicity, N6/ADR", "format": "cell-based"}, "MES-SA/DX5 cells": {"tested_on": "MES-SA/DX5 cells", "assay": "XTT cytotoxicity, MES-SA/DX5", "format": "cell-based", "how_it_was_run": "as §1"}, "NALM6 cells": {"tested_on": "NALM6 cells", "assay": "XTT cytotoxicity, NALM6", "format": "cell-based", "conditions": "Homo sapiens, NALM-6"}, "MES-SA cells": {"tested_on": "MES-SA cells", "assay": "XTT cytotoxicity, MES-SA", "format": "cell-based", "conditions": "Homo sapiens, poorly differentiated uterine sarcoma, non-resistant", "how_it_was_run": "as §1"}, "RPMI8226 myeloma cells": {"tested_on": "RPMI8226 myeloma cells", "assay": "Xenograft murine myeloma model, antitumor efficacy", "format": "in vivo, mice", "description": "In vivo anti-cancer efficacy of the molecules was evaluated in a xenograft murine myeloma model. Male SCID mice (6-8 weeks old) were maintained in accordance with Institutional Animal Care Use Committee guidelines. Mice were housed in the Animal Research Facility of Ariel University and experiments were performed in accordance with approved protocols. […] Mice were sacrificed when mean tumor volume of vehicle treated group reached 1500 mm3, or mice appeared moribund to prevent unnecessary morbidity. Mean tumor volume represents the average of tumor volume in each treatment group during the experiment. The weight of the tumors was measured at the end of the experiment and expressed as mean tumor weight per group. Body weight is expressed as mean body mice weight per group. The individual relative tumor volume (RTV) was defined as Vx/V1, where Vx is the mean tumor volume in mm3 at a given time and V1 at the start of treatment. Relative tumor volume is determined by calculating RTV (%) (mean RTV of treated group)/(mean RTV of control group)). Relative tumor volume inhibition is determined by calculating RTVI (%) (1-RTV %)"}, "[2]": {"assay": "Xenograft murine myeloma model, body weight and toxicity signs", "format": "in vivo", "conditions": "during the experiment", "description": "In vivo anti-cancer efficacy of the molecules was evaluated in a xenograft murine myeloma model. Male SCID mice (6-8 weeks old) were maintained in accordance with Institutional Animal Care Use Committee guidelines. Mice were housed in the Animal Research Facility of Ariel University and experiments were performed in accordance with approved protocols. During the experiment, RPMI8226 myeloma cells in exponential growth were harvested from culture, washed three times with sterile PBS, counted and resuspended in sterile PBS (1.5×10^7cells mouse/0.1 ml PBS) and subcutaneously injected on the right flank of male C.B-17/IcrHsd-Prkdc-scid, […] mice. After two weeks of cells injection, when tumors reached a size between 30-60 mm3, mice were assigned into different groups (n=3-5) and started receiving treatment. Body weights were determined twice weekly along with tumor volume {V=[length×(width)2]/2}measurements using electronical caliper. Mice were sacrificed when mean tumor volume of vehicle treated group reached 1500 mm3, or mice appeared moribund to prevent unnecessary morbidity.\nThe weight of the tumors was measured at the end of the experiment and expressed as mean tumor weight per group. Body weight is expressed as mean body mice weight per group."}}}
{"smiles": "Cc1c(C(=O)OCCCCN)oc2c1C(=O)CC(c1ncco1)C2.Cl", "note": "(stereo not drawn) [SMS228, 4-((3-methyl-6-(oxazol-2-yl)-4-oxo-4,5,6,7-tetrahydrobenzofuran-2-carbonyl)oxy)butan-1-aminium chloride]", "values": [{"measurement": "IC50 ratio between resistant and non-resistant cells", "setting": "MM1.R cells; MM1.R / MM1.S", "result": ">0.406"}, {"measurement": "IC50", "setting": "MM1.R cells; MM.1R", "result": "> 1800", "unit": "nM"}, {"measurement": "cell cycle arrest", "setting": "RPMI8226 cells", "result": "cell cycle arrest in G2M phase"}, {"measurement": "IC50", "setting": "RPMI 8226 cells", "result": 1530, "unit": "nM"}, {"measurement": "IC50", "setting": "RPMI-DOX40 cells", "result": 1310, "unit": "nM"}, {"measurement": "IC50 ratio between resistant and non-resistant cells", "setting": "RPMI-DOX40 cells; RPMI-DOX40 / RPMI 8226", "result": 0.853}, {"measurement": "IC50", "setting": "MM1.S cells", "result": 4430, "unit": "nM"}, {"measurement": "IC50", "setting": "MCF7-VP cells; Homo sapiens, MCF7-VP, breast adenocarcinoma, MRP overexpression", "result": 12300, "unit": "nM"}, {"measurement": "IC50 ratio between resistant and non-resistant cells", "setting": "MCF7-VP cells; MCF7-VP / MCF7", "result": 1.400}, {"measurement": "prevention of covalent binding of EBI to the colchicine binding site", "setting": "[1]", "result": "did not prevent the covalent binding of EBI to the colchicine binding site"}, {"measurement": "IC50", "setting": "RPMI-MR20 cells", "result": 2230, "unit": "nM"}, {"measurement": "IC50 ratio between resistant and non-resistant cells", "setting": "RPMI-MR20 cells; RPMI-MR20 / RPMI 8226", "result": ">1.454"}, {"measurement": "IC50", "setting": "MCF7 cells", "result": 8810, "unit": "nM"}, {"measurement": "IC50", "setting": "RPMI-LR5 cells", "result": 1300, "unit": "nM"}, {"measurement": "IC50 ratio between resistant and non-resistant cells", "setting": "RPMI-LR5 cells; RPMI-LR5 / RPMI 8226", "result": 0.847}, {"measurement": "IC50", "setting": "N6/ADR cells", "result": 360, "unit": "nM"}, {"measurement": "IC50 ratio between resistant and non-resistant cells", "setting": "N6/ADR cells; N6/ADR / NALM6", "result": 1.029}, {"measurement": "IC50", "setting": "MES-SA/DX5 cells; Homo sapiens, MES-SA/DX5, uterine sarcoma, P-gp overexpression", "result": 7410, "unit": "nM"}, {"measurement": "IC50 ratio between resistant and non-resistant cells", "setting": "MES-SA/DX5 cells; MES-SA/DX5 / MES-SA", "result": 0.778}, {"measurement": "IC50", "setting": "NALM6 cells", "result": 350, "unit": "nM"}, {"measurement": "IC50", "setting": "MES-SA cells", "result": 9520, "unit": "nM"}, {"measurement": "Relative tumor volume inhibition", "setting": "RPMI8226 myeloma cells; 15 mg/kg intraperitoneally, after 21 days", "result": 20, "unit": "%"}, {"measurement": "Relative tumor volume inhibition", "setting": "RPMI8226 myeloma cells; 30 mg/kg intraperitoneally, after 21 days", "result": 23, "unit": "%"}, {"measurement": "growth inhibition rate (tumor weight at end of experiment)", "setting": "RPMI8226 myeloma cells; 30 mg/kg subcutaneously", "result": 70, "unit": "%"}, {"measurement": "Relative tumor volume inhibition", "setting": "RPMI8226 myeloma cells; 30 mg/kg subcutaneously, after 19 days", "result": 45, "unit": "%"}, {"measurement": "tumor volume lower in the treated group vs vehicle", "setting": "RPMI8226 myeloma cells; 30 mg/kg subcutaneously, beginning of the experiment", "result": 56, "unit": "%"}, {"measurement": "tumor volume lower in the treated group vs vehicle", "setting": "RPMI8226 myeloma cells; 30 mg/kg subcutaneously, day 21", "result": 76, "unit": "%"}, {"measurement": "Relative tumor volume inhibition", "setting": "RPMI8226 myeloma cells; 50 mg/kg intraperitoneally, after 21 days", "result": 42, "unit": "%"}, {"measurement": "decrease of tumor volume as compared to vehicle at the same day", "setting": "RPMI8226 myeloma cells; 50 mg/kg intraperitoneally, day 7 to 19", "result": 30, "unit": "%"}, {"measurement": "decrease of tumor volume as compared to vehicle at the same day", "setting": "RPMI8226 myeloma cells; 50 mg/kg intraperitoneally, day 21", "result": 40, "unit": "%"}, {"measurement": "growth inhibition rate (tumor weight at end of experiment)", "setting": "RPMI8226 myeloma cells; intraperitoneally", "result": 44, "unit": "%"}, {"measurement": "body weight and other signs of potential toxicity", "setting": "[2]; 30 mg/kg subcutaneously", "result": "No significant changes in body weight or other signs of potential toxicity"}, {"measurement": "body weight and other signs of potential toxicity", "setting": "[2]; intraperitoneally", "result": "No significant changes in body weight or other signs of potential toxicity"}]}
